{"source": "patent US20220267270A1", "about": "“STING MODULATORS, COMPOSITIONS, AND METHODS OF USE” (University of South Florida, priority 2019, published 2022)", "key": {"[1]": {"molecular_target": "His-tagged human STING CDN domain (Homo sapiens, UniProt Q86WV6)", "sequence (Q86WV6 153-340 H232R limits assumed)": "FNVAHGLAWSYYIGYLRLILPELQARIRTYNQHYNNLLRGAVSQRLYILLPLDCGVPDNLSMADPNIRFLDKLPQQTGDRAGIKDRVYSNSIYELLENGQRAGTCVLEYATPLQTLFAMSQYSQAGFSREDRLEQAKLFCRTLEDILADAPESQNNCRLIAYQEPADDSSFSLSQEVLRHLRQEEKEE", "experiment": "Surface Plasmon Resonance (SPR) binding", "conditions": "steady state", "procedure": "SPR was employed for binding measurements using His-tagged human STING CDN domain. A GE Healthcare Biacore T200 was equipped with an Ni-NTA chip. […] The sensorgrams were analyzed using Biacore T200 Software 3.0 (GE Healthcare) and steady state was measured at 4 sec before injection stop, exported into Graphpad, and fit vs concentration using a one site specific binding model to calculate the apparent equilibrium dissociation constant (KD). Where appropriate, kinetics were measured using a 1:1 Langmuir binding model with Rmax set to local to obtain the association rate (Kon), dissociation (Koff), and the KD."}, "[2]": {"test_system": "STING-induced IRF3 expression", "experiment": "Competition of 335504 with agonist 2,3-cGAMP in THP-1 cells", "type": "cell-based, human", "from_the_text": "FIG. 6 depicts the effect of various concentrations of 335504 and known agonist 2,3-cGAMP on luminescence measured from THP-1 monocytic leukemia cells. […] This effect, however, is not seen at higher concentrations due to the synergistic effect of the compounds on the IFN-β signaling pathway in these cells."}, "[3]": {"test_system": "STING pathway (interferon stimulated genes, IRF3 promoter)", "experiment": "Luciferase reporter assay in THP1-ISG-Lucia cells", "quoted_text": "To maintain selection pressure, 10 μg/ml of blasticidin and 100 μg/ml of Zeocin™ was added to the growth medium every other passage.\nFor compounds, 10 mM stock solution in 100% DMSO was diluted 1:4 with ultrapure Milli Q water. For the positive control, 1 mM stock solution in 100% Milli Q H2O was diluted 3:1 with water. 50 μL of QUANTI-Luc™ luminesence assay reagent (Invivogen) was added after 18-24 h incubation period. Expression of Lucia luciferase was quantified by measuring luminescence from duplicate treatments. Data illustrated were average luminescence changes shown relative to DMSO-treated cells.\nFor compounds, 10 mM stock solution in 100% DMSO was diluted 1:4 with ultrapure Milli Q water. For the positive control, 1 mM stock solution in 100% Milli Q H2O was diluted 3:1 with water. 50 μL of QUANTI-Luc™ luminesence assay reagent (Invivogen, San Diego, Calif., USA) was added after 18-24 h incubation period. Expression of Lucia luciferase was quantified by measuring luminescence from duplicate treatments. Data illustrated are average luminescence changes shown relative to DMSO-treated cells. A Glowmax luminometer (Promega, Madison, Wis., USA) was used. QUANTI-Luc™ was prepared following the manufacturer's instructions. 10 μl of THP1-Dual™ KI-hSTING-R232 cell culture supernatant was pipetted into each well in a 96-well white (opaque) plate. 50 μl of QUANTI-Luc™ was added to each well. The measurement was then immediately taken using a 4 sec incubation time and integrating over 1 sec.\nA luciferase assay utilizing monocytic leukemia THP-1 cells was carried out to determine the upregulation of the IRF3 promoter gene as a downstream indicator of STING pathway activation.\nFIG. 4C depicts a plot of luminescence vs. log of concentration of a luciferase assay utilizing monocytic leukemia THP-1 cells that was carried out to determine the regulation of interferon stimulated genes (ISG)."}, "[4]": {"molecular_target": "His-labeled STING (hSTING) (Homo sapiens, UniProt Q86WV6)", "sequence (Q86WV6 153-340 H232R limits assumed)": "as above", "experiment": "Microscale thermophoresis (MST) binding assay", "conditions": "for direct binding to hSTING by MST: FIG. 4", "procedure": "Nanotemper Monolith NT.115 labeled thermophoresis machine was used with standard treated capillary tubes using samples comprised of labeled protein and titrations of small molecule in 1×PBS. […] Detection of the protein was performed using the blue detection channel with LED excitation power set to 90% and MST set to high allowing 3 s prior to MST on to check for initial fluorescence differences, 25 s for thermophoresis, and 3 s for regeneration after MST off."}, "hSTING": {"molecular_target": "hSTING (Homo sapiens, UniProt Q86WV6)", "sequence (Q86WV6 139-379 H232R limits assumed)": "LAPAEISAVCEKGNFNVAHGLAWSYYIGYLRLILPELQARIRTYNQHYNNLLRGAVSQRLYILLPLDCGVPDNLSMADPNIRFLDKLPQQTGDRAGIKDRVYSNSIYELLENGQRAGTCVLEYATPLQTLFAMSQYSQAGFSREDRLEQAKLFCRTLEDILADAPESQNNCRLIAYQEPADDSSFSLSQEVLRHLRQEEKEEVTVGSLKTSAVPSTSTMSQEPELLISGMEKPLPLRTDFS", "conditions": "native ligand, literature ITC value used for model validation; read-out: ITC binding energetics (KD); cited from earlier work"}}, "data": [{"smiles": "Cc1c(Cl)cccc1Nc1ncccc1C(=O)OCC(O)CO", "note": "(stereo not shown) [NSC 335504]", "values": [{"measurement": "Kd", "setting": "[1]", "value": "430 ± 140", "unit": "nM"}, {"measurement": "IC50", "setting": "[2]; Homo sapiens, THP-1 monocytic leukemia cells, with agonist 2,3-cGAMP, FIG. 7", "value": "~4.8", "unit": "nM"}, {"measurement": "competition with 2,3-cGAMP (luminescence)", "setting": "[2]; single to double digit concentrations of 335504, FIG. 6", "value": "competition of the compound with 2,3cGAMP can be observed"}, {"measurement": "ISG output (luminescence) vs DMSO blank", "setting": "[3]; 3 μM, FIG. 2", "value": "large increase in ISG output"}, {"measurement": "effect on cells at higher concentrations", "setting": "[3]; >20 μM, DMSO percentages increased", "value": "appeared to cause cell death"}, {"measurement": "EC50", "setting": "[3]; Homo sapiens, THP-1, read-out: luciferase assay EC50", "value": "29000 ± 1600", "unit": "nM"}, {"measurement": "effect in luciferase assay compared to 2,3-cGAMP", "setting": "[3]; THP-1 cells", "value": "significantly lower"}, {"measurement": "increase in Luciferase activity compared to the blank", "setting": "[3]; THP-1 cells, FIG. 4", "value": 50, "unit": "%"}, {"measurement": "direct binding to hSTING by MST", "setting": "[4]", "value": "bind to hSTING"}, {"measurement": "Kd", "setting": "[4]; rough initial estimate of binding affinity", "value": "260 ± 66", "unit": "nM"}]}, {"smiles": "Nc1nc2c(ncn2[C@@H]2O[C@@H]3COP(=O)(O)O[C@H]4[C@@H](O)[C@H](n5cnc6c(=O)[nH]c(N)nc65)O[C@@H]4COP(=O)(O)O[C@H]3[C@H]2O)c(=O)[nH]1", "note": "[c-di-GMP]", "values": [{"measurement": "Kd", "setting": "[1]", "value": 4800, "unit": "nM"}, {"measurement": "Kd", "setting": "hSTING", "value": 1200, "unit": "nM"}, {"measurement": "direct binding to hSTING by MST", "setting": "[4]", "value": "binds but with lesser affinity"}]}]}
